Data taken from ChEMBL document CHEMBL1126925, “Nonprostanoid prostacyclin mimetics. 4. Derivatives of 2-[3-[2-(4,5-diphenyl-2-oxazolyl)ethyl]phenoxy]acetic acid substituted alpha to the oxazole ring” (J Med Chem, 1993).

Organism: Homo sapiens
Test: In vitro inhibition of ADP-induced aggregation of human platelets
Assay type: functional

Compound	IC50
O=C(O)COc1cccc(/C=C/c2nc(-c3ccccc3)c(-c3ccccc3)o2)c1	13 µM
O=C(O)COc1cccc(CC(c2ccsc2)c2nc(-c3ccccc3)c(-c3ccccc3)o2)c1 (stereo unspecified)	20.7 µM
N#C/C(=C\c1cccc(OCC(=O)O)c1)c1nc(-c2ccccc2)c(-c2ccccc2)o1	0.25 µM
NC(=O)C(Cc1cccc(OCC(=O)O)c1)c1nc(-c2ccccc2)c(-c2ccccc2)o1 (stereo unspecified)	3.75 µM
CC(C)(C)C(Cc1cccc(OCC(=O)O)c1)c1nc(-c2ccccc2)c(-c2ccccc2)o1 (stereo unspecified)	3.66 µM
CC(C)OC(=O)C(Cc1cccc(OCC(=O)O)c1)c1nc(-c2ccccc2)c(-c2ccccc2)o1 (stereo unspecified)	1.22 µM
CSC(Cc1cccc(OCC(=O)O)c1)c1nc(-c2ccccc2)c(-c2ccccc2)o1 (stereo unspecified)	1.3 µM
O=C(O)COc1cccc(CC(c2ccccc2)c2nc(-c3ccccc3)c(-c3ccccc3)o2)c1 (stereo unspecified)	23.2 µM
O=C(O)COc1cccc(CC(c2nc(-c3ccccc3)c(-c3ccccc3)o2)c2cccs2)c1 (stereo unspecified)	33.2 µM
CC(C)C(Cc1cccc(OCC(=O)O)c1)c1nc(-c2ccccc2)c(-c2ccccc2)o1 (stereo unspecified)	0.97 µM
COC(=O)C(Cc1cccc(OCC(=O)O)c1)c1nc(-c2ccccc2)c(-c2ccccc2)o1 (stereo unspecified)	0.08 µM
O=C(O)COc1cccc(CC(C(=O)O)c2nc(-c3ccccc3)c(-c3ccccc3)o2)c1 (stereo unspecified)	14 µM
CS(=O)(=O)C(Cc1cccc(OCC(=O)O)c1)c1nc(-c2ccccc2)c(-c2ccccc2)o1 (stereo unspecified)	7.96 µM
O=C(O)COc1cccc(CC(CCO)c2nc(-c3ccccc3)c(-c3ccccc3)o2)c1 (stereo unspecified)	2.92 µM
C=CCC(Cc1cccc(OCC(=O)O)c1)c1nc(-c2ccccc2)c(-c2ccccc2)o1 (stereo unspecified)	0.57 µM
CNC(=O)/C(=C\c1cccc(OCC(=O)O)c1)c1nc(-c2ccccc2)c(-c2ccccc2)o1	15 µM
CCOC(=O)/C(=C\c1cccc(OCC(=O)OC(C)(C)C)c1)c1nc(-c2ccccc2)c(-c2ccccc2)o1	> 60 µM
CCOC(=O)/C(=C\c1cccc(OCC(=O)O)c1OC)c1nc(-c2ccccc2)c(-c2ccccc2)o1	0.13 µM

Compound	IC50
CCOC(=O)C(Cc1cccc(OCC(=O)O)c1OC)c1nc(-c2ccccc2)c(-c2ccccc2)o1 (stereo unspecified)	1.18 µM
CCOC(=O)/C(=C\c1cccc(OCC(=O)O)c1)c1nc(-c2ccccc2)c(-c2ccccc2)o1	0.36 µM
O=C(O)COc1cccc(CC(CCCCO)c2nc(-c3ccccc3)c(-c3ccccc3)o2)c1 (stereo unspecified)	4.68 µM
CN(C)C(=O)C(=Cc1cccc(OCC(=O)O)c1)c1nc(-c2ccccc2)c(-c2ccccc2)o1	12.2 µM
CCOC(=O)C(Cc1cccc(OCC(=O)O)c1)c1nc(-c2ccccc2)c(-c2ccccc2)o1 (stereo unspecified)	0.12 µM
O=C(O)COc1cccc(/C=C\c2nc(-c3ccccc3)c(-c3ccccc3)o2)c1	0.18 µM
CN(C)C(=O)C(Cc1cccc(OCC(=O)O)c1)c1nc(-c2ccccc2)c(-c2ccccc2)o1 (stereo unspecified)	3.56 µM
C=CCC(Cc1cccc(OCC(=O)O)c1)(C(=O)OCC)c1nc(-c2ccccc2)c(-c2ccccc2)o1 (stereo unspecified)	7.68 µM
CCOC(=O)C(=Cc1cccc(OCC(=O)OC)c1)c1nc(-c2ccccc2)c(-c2ccccc2)o1 [listing 1 of 2 here]	19.7 µM
N#CC(Cc1cccc(OCC(=O)O)c1)c1nc(-c2ccccc2)c(-c2ccccc2)o1 (stereo unspecified)	0.44 µM
CNC(=O)C(Cc1cccc(OCC(=O)O)c1)c1nc(-c2ccccc2)c(-c2ccccc2)o1 (stereo unspecified)	0.69 µM
C[S+]([O-])C(Cc1cccc(OCC(=O)O)c1)c1nc(-c2ccccc2)c(-c2ccccc2)o1 (stereo unspecified)	7.08 µM
O=C(O)COc1cccc(CC(CO)c2nc(-c3ccccc3)c(-c3ccccc3)o2)c1 (stereo unspecified)	9.31 µM
O=C(O)COc1cccc(/C=C(\C(=O)O)c2nc(-c3ccccc3)c(-c3ccccc3)o2)c1	20.3 µM
O=C(O)COc1cccc(CC(CCCO)c2nc(-c3ccccc3)c(-c3ccccc3)o2)c1 (stereo unspecified)	1.7 µM
CCOC(=O)C(=Cc1cccc(OCC(=O)OC)c1)c1nc(-c2ccccc2)c(-c2ccccc2)o1 [listing 2 of 2 here]	2 µM
CCOP(=O)(OCC)C(Cc1cccc(OCC(=O)O)c1)c1nc(-c2ccccc2)c(-c2ccccc2)o1 (stereo unspecified)	0.9 µM
CC#CCC(C)[C@H](O)/C=C/[C@@H]1[C@H]2C/C(=C/CCCC(=O)O)C[C@H]2C[C@H]1O (stereo partly specified) [ILOPROST]	0.002 µM
